# Laboratory results: patent US20250367332A1, “PSMA-TARGETED RADIOACTIVE METAL COMPLEX CONTAINING NITROAROMATIC HETEROCYCLIC GROUP AND PREPARATION METHOD” (BEIJING NORMAL UNIVERSITY, priority 2023, published 2025)
# Test system: 22RV1-FOLH1-oe cells
# Assay: In vitro cell uptake of 68Ga complexes over time in 22RV1-FOLH1-oe cells
# Assay type: cell-based
# Conditions: for uptake-time profile (course of cellular uptake with prolonged incubation time): 37 KBq, 37° C., 15-120 minutes
# Description: (§1) […] A 500 μL aliquot was added to each well of six 12-well plates. Each group of wells was treated with 37 KBq of [^68Ga]Ga-AAZTA-NI-PSMA, [^68Ga]Ga-AAZTA-NI-PSMA-11, and [^68Ga]Ga-HBED-CC-PSMA-11 solution. Incubation proceeded at 37° C. At 15, 30, 60, 90, and 120 minutes, uptake was terminated with PBS. Cells were lysed with 1 M NaOH, and lysates were absorbed onto filter paper for radioactivity measurement in plastic tubes. Blocking was performed at 60 minutes using excess unlabeled PSMA-11. After incubation, uptake was terminated with PBS, cells were lysed with 1 M NaOH, and lysates were absorbed onto filter paper for radioactivity measurement in plastic tubes.
# (§2) 22RV1-FOLH1-oe cells were suspended at a density of 1.5×10^5 cells/mL. A 500 μL aliquot was added to each well of six 12-well plates. Each group of wells was treated with 37 KBq of [^68Ga]Ga-AAZTA-NI-PSMA, [^68Ga]Ga-DOTA-NI-PSMA, [^68Ga]Ga-HBED-CC-NI-PSMA, and [^68Ga]Ga-HBED-CC-PSMA-11 solution. Incubation proceeded at 37° C. At 15, 30, 60, 90, and 120 minutes, uptake was terminated with PBS. Cells were lysed with 1 M NaOH, and lysates were absorbed onto filter paper for radioactivity measurement in plastic tubes. Blocking was performed at 60 minutes using excess unlabeled PSMA-11. After incubation, uptake was terminated with PBS, cells were lysed with 1 M NaOH, and lysates were absorbed onto filter paper for radioactivity measurement in plastic tubes.
# as §1, with “three” for “six”, “[^68Ga]Ga-AAZTA-NI-PSMA-093” for “[^68Ga]Ga-AAZTA-NI-PSMA, [^68Ga]Ga-AAZTA-NI-PSMA-11,”
# as §2, with “2×10^5” for “1.5×10^5”, “the following solutions: [^68Ga]Ga-HBED-CC-PSMA-11, [^68Ga]Ga-NI-HBED-CC-PSMA-11, [^68Ga]Ga-HBED-CC-PSMA-093,” for “[^68Ga]Ga-AAZTA-NI-PSMA, [^68Ga]Ga-DOTA-NI-PSMA, [^68Ga]Ga-HBED-CC-NI-PSMA,”, “[^68Ga]Ga-NI-HBED-CC-PSMA-093.” for “[^68Ga]Ga-HBED-CC-PSMA-11 solution.”
compound,measurement,setting,value
O=C([O-])CN(CCN(CC(=O)[O-])Cc1cc(CCC(=O)NCCCCCC(=O)NCCCC[C@H](NC(=O)N[C@@H](CCC(=O)O)C(=O)O)C(=O)O)ccc1[O-])Cc1cc(CCC(=O)O)ccc1[O-].[68Ga+3].[OH3+] [[^68Ga]Ga-HBED-CC-PSMA-11],uptake-time profile (course of cellular uptake with prolonged incubation time),"Application Embodiment 1, 1×10^5 cells/mL, n=3 (FIG. 12)",initially increased and subsequently decreased
same,cellular uptake compared with the other radioactive metal complexes,"Application Embodiment 1, versus [^68Ga]Ga-AAZTA-NI-PSMA and [^68Ga]Ga-AAZTA-NI-PSMA-11, all time points",significantly higher
same,uptake-time profile (course of cellular uptake with prolonged incubation time),"Application Embodiment 2, 1.5×10^5 cells/mL, n=3 (FIG. 14)",initially increased and subsequently decreased
same,uptake-time profile (course of cellular uptake with prolonged incubation time),"Application Embodiment 3, 1×10^5 cells/mL, n=3 (FIG. 16)",initially increased and subsequently decreased
same,uptake-time profile (course of cellular uptake with prolonged incubation time),"Application Embodiment 4, 2×10^5 cells/mL, n=3 (FIG. 18)",gradually increased
